Data published in patent US20250170102A1, “PHARMACEUTICAL COMPOSITION FOR INHIBITING FIBROSIS IN ORGANS” (NAGASAKI UNIVERSITY, priority 2022, published 2025).

Legend:
[1] = tested on: partial inferior vena cava ligation model mice (liver fibrosis); assay: Partial inferior vena cava ligation model mice with low-dose losartan treatment; format: in vivo, C57BL/6 mice
Description: C57BL/6 mice (10-week-old, CLEA) were used. All animal experiments were approved by the Institutional Animal Care and Use Committee of Nagasaki University, and carried out in accordance with the institutional guidelines.
IVC was separated and a small tube (0.9 mm diameter) was placed along with the anterior surface of IVC ((B) in FIG. 1). The tube was tightly ligated together with the IVC ((C) in FIG. 1), and immediately after that, the tube was gently removed ((D) in FIG. 1). The abdomen was then closed with a suture of the peritoneal muscle/fascia followed by closure of the skin. Removing the 0.9 mm diameter tube from IVC ligation was expected to reduce the cross-sectional area of IVC by about 80% based on Simonetto et al.
After all procedures, mice were divided into Losartan group (n=6), IVCL group (n=6) and Sham group (n=6). Losartan group was given losartan (FUJIFILM Wako
Pure Chemical Corporation) in their drinking water at a final concentration of 2.3 mg/L, which providing an estimated daily dose of 0.5 mg/kg. IVCL group was given drinking water without addition of any drug. Treatment was continued until the cessation of the experiments. Sham group received a sham operation including all above steps with the exception of partial IVC ligation, and was given drinking water without addition of any drug.
Mice were euthanized 8 weeks postoperatively. Prior to sacrifice, the body weight was measured, and whole blood was collected from IVC and serum was separated. The levels of serum ALT and AST were measured. The suprahepatic IVC was then transected and the liver was perfused with PBS through the portal vein to remove circulating blood and fibrinogen. The spleen and liver were harvested and weighed, and the spleen/body and liver/body weight ratios were calculated. Liver tissues were fixed in 4% paraformaldehyde and embedded into paraffin block. Tissue sections of about 5 um thickness were used for histological analysis.
Liver tissue sections were deparaffinized and rehydrated. Masson's trichrome staining was performed using Trichrome Stain (Masson) Kit (Sigma-Aldrich) according to the manufacturer's instructions, and then observed under an optical microscope (IX71, Olympus).
Immunohistochemistry analysis on the liver tissues was performed to understand the relevant mechanism. Briefly, liver tissue sections were blocked with 10% bovine serum albumin, and then incubated with primary antibodies (Table 1) overnight at 4°° C., followed by incubation with secondary antibodies (Table 2) for 1 hour at room temperature in the dark. Sections were then mounted with medium containing DAPI. Apoptotic cells were detected by the usage of TUNEL staining kit (Abcam, #ab66108) according to the manufacturer's instructions. Briefly, sections were incubated with DNA labeling solution at 37° C. for 60 min, followed by the addition of PI/RNase A solution for 30 min. Immunofluorescences of stained liver tissues were detected using a fluorescence microscope (FV10i, Olympus). For each staining, at least 10 images were taken from randomly selected fields at 60× magnification, and the mean fluorescence intensity was measured by ImageJ software.
All the results were presented as mean±SD. Statistical significance was determined by one-way analysis of variance (ANOVA) followed by Turkey's test. P value <0.05 was accepted as significant. GraphPad Prism 8 software was used for statistical analysis.

[2] = tested on: human hepatic stellate cells (HSCs); assay: Ex vivo hydrostatic pressure loading test in human HSCs; format: cell-based; conditions: 10 nM losartan, 50 mmHg hydrostatic pressure 24 hours
Protocol: Primary human HSCs were purchased from ScienCell Research Laboratories. Cells were expanded by using stellate cell medium (ScienCell Research Laboratories) in a humidified incubator under 5% CO2 and 95% air at 37° C. The third passaged cells were used for the following experiments. A pneumatic pressurizing system (Strex. Inc) was used to induce hydrostatic pressure. Briefly, HSCs were seeded in 60-mm diameter culture dishes (5×10^4 cells/dish) and 4-well culture chamber slides (2×10^4 cells/well). Cells were incubated for 3 days to form about 70% confluent, and then half of the culture dishes and slides were randomly selected to be loaded by 50 mmHg hydrostatic pressure for 24 hours, with or without the addition of 10 nM losartan in medium. The inventors used 50 mmHg for experiments based on their preliminary experiments and a previous report (Yoshino et al., Commun Biol 3:152, 2020, Chen et al., Int J Biol Sci 15:2509-2521, 2019). As controls, non-hydrostatic pressure-loaded groups were provided for each of Losartan addition group and non-Losartan addition group. RT-qPCR was performed to evaluate the expression of RHOA, ROCK1, ROCK2, ACTA2, TGFB1, and COL1A1. Briefly, total RNA was isolated from HSCs using Quick-RNA MicoroPrep Kit, and 1.25 μg of RNA was reverse-transcribed using SuperScript VILO cDNA Synthesis Kit (Thermo Fisher Scientific). Quantitative PCR was carried out with SYBR Green real-time PCR Master Mix (Toyobo). The reactions were performed on a CFX96 real-time PCR System (BIO-RAD). The primer sequences are shown below. GAPDH was used for normalization. HSCs were fixed in 4% paraformaldehyde before blocked by 10% bovine serum albumin. After overnight incubation with the primary antibodies, cells were incubated with secondary antibodies for 1 hour at room temperature, and then mounted with medium containing DAPI. F-actin fibers were stained with TRITC-conjugated phalloidin in mounting medium. Immunofluorescences of stained cells were detected using a fluorescence microscope (FV10i, Olympus). For each staining, 10 images were taken from randomly selected fields at 60× magnification, and the mean fluorescence intensity was measured by ImageJ software. Statistical analysis was performed in the same manner as in Example 1.

[3] = tested on: acute lung injury caused by mechanical stimulation; conditions: reported in non-patent literature 3; cited from earlier work
[4] = tested on: liver fibrosis caused by non-alcoholic steatohepatitis; conditions: rats; reported in non-patent literature 4; cited from earlier work
[5] = tested on: UUO-induced renal fibrosis model mice; assay: Unilateral ureteral obstruction (UUO)-induced renal fibrosis model mice with losartan treatment; format: in vivo, C57BL/6 mice; conditions: for body weight: prior to UUO surgery and 1 and 2 weeks post-surgery, among all groups; for level of BUN in serum / level of CRE in serum / swelling of the left kidneys (hydronephrosis) / fibrosis area of kidney (Masson's trichrome staining): 2 weeks after UUO surgery; for level of BUN in serum / level of CRE in serum: compared to control group; for swelling of the left kidneys (hydronephrosis): versus control group; for fibrosis area of kidney (Masson's trichrome staining): versus left kidney of control group (UUO)
Description: C57BL/6 mice (8-week-old, CLEA) were used. The abdomen of mouse was opened under general anesthesia and the left ureter was ligated. The right ureter was not ligated and the right kidney served as a control. The surgical wound was then closed with a single-layer suture of the peritoneum, muscular layer and skin followed by closure of the surgical wound. UUO-induced renal fibrosis model is known to manifest the symptoms of hydronephrosis in the ligated kidney and then develop interstitial fibrosis caused by interstitial deposition of type IV collagen as well as apoptosis of tubular cells at day 3 post-UUO surgery. Post-UUO surgery mice were divided into three groups: low-dose losartan group (1 mg/kg, n=3), high-dose losartan group (3 mg/kg, n=3) and no losartan administration group (n=3). Low-dose losartan group was given losartan (FUJIFILM Wako Pure Chemical Corporation) in their drinking water at a final concentration of 4.6 mg/L, which providing an estimated daily dose of 1 mg/kg. High-dose losartan group was given losartan in their drinking water at a final concentration of 13.8 mg/L, which providing an estimated daily dose of 3 mg/kg. No losartan administration group was given drinking water without addition of losartan. Body weight was measured prior to UUO surgery and 1 and 2 weeks post-surgery. Mice were euthanized 2 weeks post-surgery. Prior to sacrifice, whole blood was collected from IVC and serum was separated. The levels of serum BUN and CRE were measured. The left and right kidneys were then harvested and photographed. Kidneys were fixed in 4% paraformaldehyde and embedded into paraffin block. Tissue sections of about 5 µm thickness were used for histological analysis. (3) Masson's trichrome staining and Hematoxylin and Eosin staining Tissue sections were deparaffinized and rehydrated. Masson's trichrome staining was performed using Trichrome Stain (Masson) Kit (Sigma-Aldrich) according to the manufacturer's instructions. Hematoxylin and Eosin (HE) staining was performed by a conventional method. Tissue specimens were observed under with an optical microscope (IX71, Olympus). Statistical analysis was performed in the same manner as in Example 1.

[6] = losartan 0.5 mg/kg/day in drinking water, 8 weeks after partial IVC ligation, among Sham, IVCL and Losartan groups
[7] = losartan 0.5 mg/kg/day in drinking water, 8 weeks after partial IVC ligation, compared with Sham group
[8] = losartan 0.5 mg/kg/day, 8 weeks, compared to IVCL group
[9] = losartan 0.5 mg/kg/day, 8 weeks, versus upregulation in IVCL group
[10] = compared to pressure-loaded group without losartan

## CCCCc1nc(Cl)c(CO)n1Cc1ccc(-c2ccccc2-c2nn[nH]n2)cc1 [losartan]
[1]; [6]
  level of ALT in serum: not significantly different
  level of AST in serum: not significantly different
[1]; [7]
  liver/body weight ratio: kept at comparable levels
  spleen/body weight ratio: kept at comparable levels
[1]; losartan 0.5 mg/kg/day, 8 weeks, all groups
  expression of ROCK2 in liver tissue (immunostaining): not substantially changed
[1]; [8]
  changes in the lobular architecture of liver: effectively alleviated
  fibrotic area of liver tissue (Masson's trichrome staining): significantly decreased
[1]; losartan 0.5 mg/kg/day, 8 weeks, compared to Sham group
  percentage of apoptotic cells in liver tissue (TUNEL staining): not significantly changed
[1]; losartan 0.5 mg/kg/day, 8 weeks, in contrast to IVCL group
  expression of α-SMA in liver tissue (immunostaining signal intensity): significantly reduced
[1]; [9]
  expression of ROCK1 in liver tissue (immunostaining): significantly reduced
  expression of RhoA in liver tissue (immunostaining): significantly reduced
  expression of p-MLC2 in liver tissue (immunostaining): effectively attenuated
[2]
  expression of ROCK2 (immunohistochemistry): no significant change
  expression of ROCK2 gene (RT-qPCR): no significant change
  formation of actin stress fibers (phalloidin staining for F-actin): effectively reduced
[2]; [10]
  expression of ACTA2 gene (RT-qPCR): significantly decreased
  expression of AT1R gene (RT-qPCR): significantly decreased
  expression of AT1R in the cytoplasm (immunohistochemistry): significantly decreased
  expression of AT1R in the nucleus (immunohistochemistry): significantly decreased
  expression of COL1A1 gene (RT-qPCR): significantly decreased
  expression of ROCK1 (immunohistochemistry): significantly decreased
  expression of ROCK1 gene (RT-qPCR): significantly decreased
  expression of RhoA (immunohistochemistry): significantly decreased
  expression of RhoA gene (RT-qPCR): significantly decreased
  expression of TGF-β1 (immunohistochemistry): significantly decreased
  expression of TGFB1 gene (RT-qPCR): significantly decreased
  expression of p-MLC2 (immunohistochemistry): significantly decreased
  expression of type 1 collagen (immunohistochemistry): significantly decreased
  expression of α-SMA (immunohistochemistry): significantly decreased
[3]
  acute lung injury caused by mechanical stimulation: effectively relieves
[4]
  liver fibrosis caused by non-alcoholic steatohepatitis: mitigates
[5]; high-dose losartan 3 mg/kg/day in drinking water
  body weight: No significant change
[5]; high-dose losartan 3 mg/kg/day
  level of BUN in serum: significantly decreased
  level of CRE in serum: significantly decreased
  swelling of the left kidneys (hydronephrosis): significantly inhibited
  fibrosis area of kidney (Masson's trichrome staining): significant decreasing
[5]; low-dose losartan 1 mg/kg/day in drinking water
  body weight: No significant change
[5]; low-dose losartan 1 mg/kg/day
  level of BUN in serum: significantly decreased
  level of CRE in serum: significantly decreased
  swelling of the left kidneys (hydronephrosis): significantly inhibited
  fibrosis area of kidney (Masson's trichrome staining): significant decreasing
